According to ChEMBL document CHEMBL5678816, “A Next-Generation TRK Kinase Inhibitor Overcomes Acquired Resistance to Prior TRK Kinase Inhibition in Patients with TRK Fusion-Positive Solid Tumors” (Cancer Discov, 2017):
Activity calls are given as the source filed them. The rule behind the calls is not given here.

Tests used:
[1] = Oral bioavailability in dog at 10 mg/kg administered as 0.5% carboxymethylcellulose 0.02% sodium dodecyl sulfate formulation by LC-MS analysis; format: ADME, organism-based, Canis lupus familiaris; conditions: in vivo
[2] = Clearance in mouse at 1 mg/kg, iv administered as 20% hydroxypropyl-beta-cyclodextrin formulation by LC-MS analysis; format: ADME, organism-based; conditions: in vivo
SK-BR-3 = test: Inhibition of cell proliferation in human SK-BR-3 cells upto 10 umol/L incubated for 72 hrs by DAPI staining based analysis; format: functional; conditions: dose <= 10.0 µmol/L
SK-LMS-1 = test: Inhibition of cell proliferation in human SK-LMS-1 cells upto 10 umol/L incubated for 72 hrs by DAPI staining based analysis; format: functional; conditions: dose <= 10.0 µmol/L
DMS-114 = test: Inhibition of cell proliferation in human DMS-114 cells upto 10 umol/L incubated for 72 hrs by DAPI staining based analysis; format: functional; conditions: dose <= 10.0 µmol/L
EFM-19 = test: Inhibition of cell proliferation in human EFM-19 cells upto 10 umol/L incubated for 72 hrs by DAPI staining based analysis; format: functional; conditions: dose <= 10.0 µmol/L
BT-20 = test: Inhibition of cell proliferation in human BT-20 cells upto 10 umol/L incubated for 72 hrs by DAPI staining based analysis; format: functional; conditions: dose <= 10.0 µmol/L
HEL 92.1.7 = test: Inhibition of cell proliferation in human HEL 92.1.7 cells upto 10 umol/L incubated for 72 hrs by DAPI staining based analysis; format: functional; conditions: dose <= 10.0 µmol/L
BT-474 = test: Inhibition of cell proliferation in human BT-474 cells upto 10 umol/L incubated for 72 hrs by DAPI staining based analysis; format: functional; conditions: dose <= 10.0 µmol/L
TF-1 = test: Inhibition of cell proliferation in human TF-1 cells upto 10 umol/L incubated for 72 hrs by DAPI staining based analysis; format: functional; conditions: dose <= 10.0 µmol/L
UMUC3 = test: Inhibition of cell proliferation in human UMUC3 cells upto 10 umol/L incubated for 72 hrs by DAPI staining based analysis; format: functional; conditions: dose <= 10.0 µmol/L
[3] = Cmin in pediatric patient with recurrent ETV6-NTRK3-rearranged infantile fibrosarcoma at 20 mg administered twice a day as liquid formulation for 1 day and measured 12 hrs post dose by LC-MS/MS analysis; format: ADME; conditions: human, in vivo, read-out: Cmin
[4] = Cmin in pediatric patient with recurrent ETV6-NTRK3-rearranged infantile fibrosarcoma at 60 mg administered twice a day as liquid formulation for 8 day and measured 12 hrs post dose by LC-MS/MS analysis; format: ADME; conditions: human, in vivo, read-out: Cmin
[5] = target: Tyrosine-protein kinase Lyn (Homo sapiens) (UniProt P07948); test: Inhibition of Lyn (unknown origin) at 1 uM in presence of ATP relative to control; values are per cent of control
[6] = target: Tyrosine-protein kinase Yes (Homo sapiens) (UniProt P07947); test: Inhibition of Yes (unknown origin) at 1 uM in presence of ATP relative to control; values are per cent of control
[7] = target: RAC-gamma serine/threonine-protein kinase (Homo sapiens) (UniProt Q9Y243); test: Inhibition of AKT3 (unknown origin) at 1 uM in presence of ATP relative to control; values are per cent of control
[8] = target: Serine/threonine-protein kinase Sgk2 (Homo sapiens) (UniProt Q9HBY8); test: Inhibition of SGK2 (unknown origin) at 1 uM in presence of ATP relative to control; values are per cent of control
[9] = target: Serine/threonine-protein kinase PLK2 (Homo sapiens) (UniProt Q9NYY3); test: Inhibition of Plk2 (unknown origin) at 1 uM in presence of ATP relative to control; values are per cent of control
[10] = target: Serine/threonine-protein kinase PAK 6 (Homo sapiens) (UniProt Q9NQU5); test: Inhibition of PAK6 (unknown origin) at 1 uM in presence of ATP relative to control; values are per cent of control
[11] = target: Tyrosine-protein kinase ABL2 (Homo sapiens) (UniProt P42684); test: Inhibition of Abl2 (unknown origin) at 1 uM in presence of ATP relative to control; values are per cent of control
[12] = target: Tyrosine-protein kinase JAK2 (Homo sapiens) (UniProt O60674); test: Inhibition of JAK2 (unknown origin) at 1 uM in presence of ATP relative to control; values are per cent of control
[13] = target: Protein-tyrosine kinase 6 (Homo sapiens) (UniProt Q13882); test: Inhibition of PTK6 (unknown origin) at 1 uM in presence of ATP relative to control; values are per cent of control
[14] = target: Activin receptor type-1B (Homo sapiens) (UniProt P36896); test: Inhibition of ALK4 (unknown origin) at 1 uM in presence of ATP relative to control; values are per cent of control
[15] = target: Calcium/calmodulin-dependent protein kinase type 1 (Homo sapiens) (UniProt Q14012); test: Inhibition of CAMK1 (unknown origin) at 1 uM in presence of ATP relative to control; values are per cent of control
[16] = target: Homeodomain-interacting protein kinase 3 (Homo sapiens) (UniProt Q9H422); test: Inhibition of HIPK3 (unknown origin) at 1 uM in presence of ATP relative to control; values are per cent of control
[17] = target: Ephrin type-A receptor 2 (Homo sapiens) (UniProt P29317); test: Inhibition of EphA2 (unknown origin) at 1 uM in presence of ATP relative to control; values are per cent of control
[18] = target: Serine/threonine-protein kinase DCLK2 (Homo sapiens) (UniProt Q8N568); test: Inhibition of DCAMKL2 (unknown origin) at 1 uM in presence of ATP relative to control; values are per cent of control
[19] = target: Protein kinase C alpha type (Homo sapiens) (UniProt P17252); test: Inhibition of PKCalpha (unknown origin) at 1 uM in presence of ATP relative to control; values are per cent of control
[20] = target: Casein kinase I isoform delta (Homo sapiens) (UniProt P48730); test: Inhibition of CK1delta (unknown origin) at 1 uM in presence of ATP relative to control; values are per cent of control
[21] = target: Glycogen synthase kinase-3 beta (Homo sapiens) (UniProt P49841); test: Inhibition of GSK3beta (unknown origin) at 1 uM in presence of ATP relative to control; values are per cent of control
[22] = target: cGMP-dependent protein kinase 1 (Homo sapiens) (UniProt Q13976); test: Inhibition of PRKG1alpha (unknown origin) at 1 uM in presence of ATP relative to control; values are per cent of control

Sequence of Serine/threonine-protein kinase DCLK2 (Homo sapiens) (Q8N568 whole entry): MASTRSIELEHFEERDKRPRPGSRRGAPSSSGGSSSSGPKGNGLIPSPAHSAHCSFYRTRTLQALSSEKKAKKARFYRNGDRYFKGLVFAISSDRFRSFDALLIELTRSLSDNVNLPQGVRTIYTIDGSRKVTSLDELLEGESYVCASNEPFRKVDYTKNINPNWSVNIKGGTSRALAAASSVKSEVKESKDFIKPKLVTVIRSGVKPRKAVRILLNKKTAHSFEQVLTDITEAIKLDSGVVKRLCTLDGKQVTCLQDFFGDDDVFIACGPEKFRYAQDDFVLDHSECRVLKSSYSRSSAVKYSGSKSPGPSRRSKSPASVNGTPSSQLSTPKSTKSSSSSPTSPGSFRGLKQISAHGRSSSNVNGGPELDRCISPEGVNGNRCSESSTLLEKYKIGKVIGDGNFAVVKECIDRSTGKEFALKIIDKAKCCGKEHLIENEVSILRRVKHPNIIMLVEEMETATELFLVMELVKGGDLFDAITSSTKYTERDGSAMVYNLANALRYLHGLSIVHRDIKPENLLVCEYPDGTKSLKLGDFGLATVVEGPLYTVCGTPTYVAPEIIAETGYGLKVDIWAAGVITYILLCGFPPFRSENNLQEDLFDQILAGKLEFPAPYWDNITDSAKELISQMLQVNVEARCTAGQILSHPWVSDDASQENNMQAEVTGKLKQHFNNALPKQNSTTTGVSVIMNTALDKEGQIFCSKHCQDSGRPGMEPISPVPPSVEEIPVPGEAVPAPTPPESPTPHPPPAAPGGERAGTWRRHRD
Sequence of Calcium/calmodulin-dependent protein kinase type 1 (Homo sapiens) (Q14012 whole entry, looked up): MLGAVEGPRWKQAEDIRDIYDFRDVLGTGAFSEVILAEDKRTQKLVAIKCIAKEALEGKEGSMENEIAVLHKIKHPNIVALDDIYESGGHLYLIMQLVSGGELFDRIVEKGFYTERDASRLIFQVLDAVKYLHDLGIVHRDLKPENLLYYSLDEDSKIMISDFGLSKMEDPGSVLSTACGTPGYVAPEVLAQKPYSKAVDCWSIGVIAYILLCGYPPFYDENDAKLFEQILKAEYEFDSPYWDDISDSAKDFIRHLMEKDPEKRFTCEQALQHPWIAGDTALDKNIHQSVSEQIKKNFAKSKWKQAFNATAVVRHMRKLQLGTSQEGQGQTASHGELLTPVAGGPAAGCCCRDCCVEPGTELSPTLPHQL
Sequence of Casein kinase I isoform delta (Homo sapiens) (P48730 whole entry, looked up, canonical isoform): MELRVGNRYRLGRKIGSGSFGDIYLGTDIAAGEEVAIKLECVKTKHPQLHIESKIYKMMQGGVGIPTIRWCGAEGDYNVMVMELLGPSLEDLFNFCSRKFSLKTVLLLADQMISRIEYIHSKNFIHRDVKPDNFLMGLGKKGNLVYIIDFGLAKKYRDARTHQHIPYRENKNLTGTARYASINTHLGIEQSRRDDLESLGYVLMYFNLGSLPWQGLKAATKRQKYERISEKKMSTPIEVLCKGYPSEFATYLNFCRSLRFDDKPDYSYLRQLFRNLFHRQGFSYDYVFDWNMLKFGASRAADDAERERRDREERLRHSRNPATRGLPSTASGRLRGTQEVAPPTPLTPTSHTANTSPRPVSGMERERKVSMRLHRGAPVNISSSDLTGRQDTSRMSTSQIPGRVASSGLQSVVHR
Sequence of Glycogen synthase kinase-3 beta (Homo sapiens) (P49841 whole entry, looked up): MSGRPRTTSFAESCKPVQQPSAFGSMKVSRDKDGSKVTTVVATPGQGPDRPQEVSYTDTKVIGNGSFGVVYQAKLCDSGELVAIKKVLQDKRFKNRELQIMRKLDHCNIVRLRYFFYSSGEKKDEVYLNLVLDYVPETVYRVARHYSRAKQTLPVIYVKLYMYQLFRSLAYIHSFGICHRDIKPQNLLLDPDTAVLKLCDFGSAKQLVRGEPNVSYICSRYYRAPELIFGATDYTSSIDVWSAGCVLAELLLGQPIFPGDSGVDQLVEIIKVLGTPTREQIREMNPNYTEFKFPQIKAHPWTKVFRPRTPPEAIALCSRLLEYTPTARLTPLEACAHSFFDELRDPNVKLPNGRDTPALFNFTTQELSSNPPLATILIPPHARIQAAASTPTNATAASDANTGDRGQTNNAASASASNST
Sequence of Protein-tyrosine kinase 6 (Homo sapiens) (Q13882 whole entry, looked up): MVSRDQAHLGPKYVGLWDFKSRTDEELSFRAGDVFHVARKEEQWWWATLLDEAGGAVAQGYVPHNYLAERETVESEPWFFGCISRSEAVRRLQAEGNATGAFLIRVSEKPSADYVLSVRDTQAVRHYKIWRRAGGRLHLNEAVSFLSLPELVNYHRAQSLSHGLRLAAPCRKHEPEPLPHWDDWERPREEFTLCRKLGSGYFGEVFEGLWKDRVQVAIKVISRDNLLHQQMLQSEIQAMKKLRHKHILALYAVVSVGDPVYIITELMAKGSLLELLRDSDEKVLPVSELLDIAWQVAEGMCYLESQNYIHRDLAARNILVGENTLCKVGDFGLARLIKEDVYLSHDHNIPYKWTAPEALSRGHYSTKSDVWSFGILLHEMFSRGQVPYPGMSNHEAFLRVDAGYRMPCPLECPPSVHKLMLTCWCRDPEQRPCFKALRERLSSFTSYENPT
Sequence of Homeodomain-interacting protein kinase 3 (Homo sapiens) (Q9H422 whole entry, looked up): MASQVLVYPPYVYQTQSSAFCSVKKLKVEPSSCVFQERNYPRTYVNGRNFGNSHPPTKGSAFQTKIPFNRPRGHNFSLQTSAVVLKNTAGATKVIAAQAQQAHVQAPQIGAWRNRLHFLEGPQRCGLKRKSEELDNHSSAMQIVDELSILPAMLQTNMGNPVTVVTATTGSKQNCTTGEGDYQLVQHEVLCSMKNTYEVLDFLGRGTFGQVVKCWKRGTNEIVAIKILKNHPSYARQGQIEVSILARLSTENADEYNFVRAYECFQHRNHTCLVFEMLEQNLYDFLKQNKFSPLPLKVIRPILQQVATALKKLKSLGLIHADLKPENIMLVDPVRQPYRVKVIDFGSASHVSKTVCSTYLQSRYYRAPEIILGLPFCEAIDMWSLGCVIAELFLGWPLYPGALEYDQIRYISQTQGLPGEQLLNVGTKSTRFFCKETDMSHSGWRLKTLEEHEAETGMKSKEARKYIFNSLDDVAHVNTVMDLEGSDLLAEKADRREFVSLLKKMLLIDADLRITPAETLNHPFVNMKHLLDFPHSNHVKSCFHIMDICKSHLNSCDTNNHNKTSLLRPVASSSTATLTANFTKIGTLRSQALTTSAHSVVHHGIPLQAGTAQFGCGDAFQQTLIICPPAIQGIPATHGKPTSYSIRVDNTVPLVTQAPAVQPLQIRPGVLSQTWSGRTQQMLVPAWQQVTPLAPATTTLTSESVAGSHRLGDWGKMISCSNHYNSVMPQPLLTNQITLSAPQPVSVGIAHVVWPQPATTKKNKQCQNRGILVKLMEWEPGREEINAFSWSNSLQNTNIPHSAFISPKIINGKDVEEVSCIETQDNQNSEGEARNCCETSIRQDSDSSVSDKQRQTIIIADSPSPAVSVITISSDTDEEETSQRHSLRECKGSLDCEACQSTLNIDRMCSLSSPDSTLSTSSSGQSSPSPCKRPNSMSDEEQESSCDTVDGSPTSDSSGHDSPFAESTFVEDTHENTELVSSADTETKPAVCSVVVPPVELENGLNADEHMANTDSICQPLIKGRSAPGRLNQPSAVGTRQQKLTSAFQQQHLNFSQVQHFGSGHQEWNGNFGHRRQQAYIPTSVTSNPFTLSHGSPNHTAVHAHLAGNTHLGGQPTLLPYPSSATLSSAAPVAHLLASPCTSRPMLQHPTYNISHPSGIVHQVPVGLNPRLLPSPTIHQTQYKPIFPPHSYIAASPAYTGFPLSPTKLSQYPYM
Sequence of Tyrosine-protein kinase Yes (Homo sapiens) (P07947 2-543 limits assumed): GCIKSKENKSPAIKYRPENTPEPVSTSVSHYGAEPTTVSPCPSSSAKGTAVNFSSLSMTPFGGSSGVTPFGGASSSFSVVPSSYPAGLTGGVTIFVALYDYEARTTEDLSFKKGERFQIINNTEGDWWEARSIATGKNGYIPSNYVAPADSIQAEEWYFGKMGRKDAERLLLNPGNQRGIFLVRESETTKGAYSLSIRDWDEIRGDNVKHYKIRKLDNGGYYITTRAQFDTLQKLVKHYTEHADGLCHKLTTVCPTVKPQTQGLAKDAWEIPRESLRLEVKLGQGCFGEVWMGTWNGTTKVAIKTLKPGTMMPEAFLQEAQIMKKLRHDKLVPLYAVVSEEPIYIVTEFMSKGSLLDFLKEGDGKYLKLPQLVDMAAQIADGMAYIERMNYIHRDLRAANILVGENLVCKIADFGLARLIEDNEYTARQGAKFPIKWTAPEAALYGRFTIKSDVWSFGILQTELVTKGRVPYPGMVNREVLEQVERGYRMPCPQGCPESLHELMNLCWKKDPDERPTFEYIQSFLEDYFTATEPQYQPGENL

bioavailability [1]: 42% | clearance [2]: 4.83 mL/min/kg | concentration at 36 h [3]: < 1 ng/mL | concentration at 204 h [4]: < 1 ng/mL | residual activity [5]: 98% | residual activity [6]: 82% | residual activity [7]: 104% | residual activity [8]: 136% | residual activity [9]: 95% | residual activity [10]: 99% | residual activity [11]: 105% | residual activity [12]: 37.5% | residual activity [13]: 98.5% | residual activity [14]: 96% | residual activity [15]: 107% | residual activity [16]: 105% | residual activity [17]: 79.5% | residual activity [18]: 140% | residual activity [19]: 107% | residual activity [20]: 110% | residual activity [21]: 124% | residual activity [22]: 110%
Structure (SMILES): C[C@@H]1CCc2ncc(F)cc2[C@H]2CCCN2c2ccn3ncc(c3n2)C(=O)N1 [SELITRECTINIB]
inhibition (SK-BR-3): inactive | inhibition (SK-LMS-1): inactive | inhibition (DMS-114): inactive | inhibition (EFM-19): inactive | inhibition (BT-20): inactive | inhibition (HEL 92.1.7): inactive | inhibition (BT-474): inactive | inhibition (TF-1): inactive | inhibition (UMUC3): inactive
